A short description of series [1]: Intrinsic clearance in rat hepatocytes assessed per 10^6 cells.
A short description of series [2]: Percentage unbound in rat plasma at 37 degC by equilibrium dialysis method. Type of series: ADME, cell-free.
Series [3] can be described thus: Oral bioavailability in rat. As to conditions: in vivo. It counts as ADME, organism-based.
Another series in a line: in vivo. To be noted: rat.
Series [4] is described as follows: Lipophilicity, log D at pH 7.4 by shake flask method. To be noted: buffer.
Series [5] in a line: Inhibition of N-terminal 6-His tagged full length dog 11betaHSD1 incubated for 25 mins by HTRF assay. Further details: species or system Canis lupus familiaris.
Series [6] can be described thus: Drug metabolism in bile duct cannulated rat urine assessed as oxidative metabolism level during 0 to 6 hrs post dose by metabolism-ID study. As to conditions: in vivo. Type of series: ADME, tissue-based.
The subject of series [7] is Hepatocyte. Put plainly: Drug metabolism in human hepatocytes assessed as ratio of glucuronidation to oxidative metabolism level by metabolism-ID study. Type of series: ADME, cell-based.
The nature of series [8]: Stability in bile duct cannulated rat bile assessed as parent compound remaining measured during 0 to 6 hrs post dose. Type of series: ADME. To be noted: in vivo.
Series [9] can be described thus: Drug metabolism in dog hepatocytes assessed as oxidative metabolism level by metabolism-ID study. It counts as ADME, cell-based, Canis lupus familiaris, Hepatocyte.
A short description of series [10]: Stability in bile duct cannulated rat urine assessed as parent compound remaining measured during 0 to 6 hrs post dose. It counts as ADME, tissue-based. As to conditions: in vivo.
A short description of series [11]: Drug metabolism in bile duct cannulated rat bile assessed as ratio of glucuronidation to oxidative metabolism level during 0 to 6 hrs post dose by metabolism-ID study. As to conditions: in vivo. Type of series: ADME.
For series [12], the system named is Hepatocyte. In words: Drug metabolism in rat hepatocytes assessed as ratio of glucuronidation to oxidative metabolism level by metabolism-ID study. It counts as ADME, cell-based.
Series [13] can be described thus: Inhibition of N-terminal 6-His tagged full length cynomolgus monkey 11betaHSD1 incubated for 25 mins by HTRF assay. Details: species or system Macaca fascicularis. A general note: Time-resolved FRET reads energy transfer from a long-lived donor to a nearby acceptor.
Series [14] is described as follows: Drug metabolism in bile duct cannulated rat urine assessed as ratio of glucuronidation to oxidative metabolism level during 0 to 6 hrs post dose by metabolism-ID study. To be noted: in vivo. Type of series: ADME, tissue-based.
The nature of series [15]: Drug metabolism in bile duct cannulated rat bile assessed as oxidative metabolism level during 0 to 6 hrs post dose by metabolism-ID study. To be noted: in vivo. It counts as ADME.
Series [16] in a line: Drug metabolism in dog hepatocytes assessed as ratio of glucuronidation to oxidative metabolism level by metabolism-ID study. Type of series: ADME, cell-based, Canis lupus familiaris, Hepatocyte.

Each structure is given as a SMILES string.

For the compound `O=C(O)c1ccc(-n2ncc(C(=O)NC3C4CC5CC(C4)CC3C5)c2C2CCC2)cc1` (centres undefined), in series [1], the hepatocyte CLint (in general, a measure of how fast metabolising enzymes remove a compound, apart from limits set by blood flow) was under 3 µL/min/1e6 cells. Moreover, the fraction unbound (usually the share of the substance not bound to proteins or other matrix) in series [2] is 0.012. Also, the bioavailability (in general, the share of a dose that reaches the circulation, judged against a reference dose that is usually intravenous) in series [3] is over 100%. Besides, the clearance (in general, the volume of plasma or blood freed of the substance per unit of time) in the series “in vivo” amounted to 1.3 mL/min/kg.

Turning to `CCCSc1ncccc1C(=O)NC1CCCCC1`, the logD – broadly, lipophilicity at a set pH, counting ionised and neutral species – in series [4] is reported as 3.2.

Consider `CCCSc1c(C(=O)N[C@H]2C3CC4CC2C[C@](O)(C4)C3)cnn1-c1ccc(C(=O)O)cc1`, for which the hepatocyte CLint in series [1] is under 2 µL/min/1e6 cells. Also, the free fraction (fraction unbound) in [2] was determined as 0.105. The logD in series [4] was -0.4. The compound further registered a bioavailability in series [3] of 10%. In addition, the clearance in the series “in vivo” stood at 20 mL/min/kg.

Take `CCc1c(C(=O)NC2C3CC4CC(C3)CC2C4)cnn1-c1ccc(C(=O)O)cc1` (centres undefined): in series [2], the fraction unbound worked out at 0.06. For the same compound, in series [4], the log distribution coefficient (logD) came to 0.9. The bioavailability in series [3] is over 100%.

Turning to `O=C(O)c1ccc(-n2ncc(C(=O)NC3C4CC5CC(C4)CC3C5)c2SC2CCCCC2)cc1` (centres undefined), the hepatocyte CLint in series [1] was found to be 9.4 µL/min/1e6 cells. The compound further showed a fraction unbound in series [2] of 0.0013. In series [4], the logD was 3. This compound also came in with a bioavailability in series [3] of 82%. This compound also returned a clearance in “in vivo” of 3.6 mL/min/kg.

In turn, `CCCSc1c(C(=O)N[C@H]2C3CC4CC2C[C@](S(C)(=O)=O)(C4)C3)cnn1-c1ccc(C(=O)O)cc1` came in with a fraction unbound in series [2] of 0.134. For the same compound, in series [4], the logD is under 0.5. In series [3], this compound had a bioavailability of 7%.

Consider `O=C(O)c1ccc(-n2ncc(C(=O)NC3C4CC5CC(C4)CC3C5)c2SC2CCCC2)cc1` (centres undefined), for which the hepatocyte CLint in series [1] stood at 14 µL/min/1e6 cells. The compound also yielded a fraction unbound in [2] of 0.0015. For the same compound, the logD in series [4] was found to be 2.6. Moreover, in series [3], the bioavailability was 57%. The compound also gave a clearance in “in vivo” of 3.3 mL/min/kg.

`CCCSc1c(C(=O)NC2CCCCC2)cnn1[C@H]1CC[C@@H](C(=O)O)CC1`: the hepatocyte CLint in [1] stood at 58 µL/min/1e6 cells. In [4], this compound yielded a logD of 1.4. The compound also had a bioavailability in series [3] of 49%. The same compound had a clearance in “in vivo” of 43 mL/min/kg.

Consider `CCCSc1c(C(=O)N[C@H]2C3CC4CC2C[C@](OC)(C4)C3)cnn1-c1ccc(C(=O)O)cc1`, for which, in series [1], the hepatocyte CLint was under 2 µL/min/1e6 cells. This compound also returned a fraction unbound in [2] of 0.285. Besides, in series [4], the logD was under 0.5. In addition, the bioavailability in series [3] came out at 54%. The compound also had a clearance in “in vivo” of 13 mL/min/kg.

As for `O=C(O)c1ccc(-n2ncc(C(=O)NC3C4CC5CC(C4)CC3C5)c2C2CCCC2)cc1` (centres undefined), in series [2], the fraction unbound was found to be 0.004. In [4], the logD is 1.7. For the same compound, the bioavailability in [3] was over 100%.

In series [1], `CCCSc1c(C(=O)N[C@H]2C3CC4CC2C[C@](OC(F)F)(C4)C3)cnn1-c1ccc(C(=O)O)cc1` showed a hepatocyte CLint of 18 µL/min/1e6 cells. This compound also had an unbound share (fraction unbound) in series [2] of 0.026. This compound also showed a logD in [4] of 1.2. In series [3], the bioavailability came to 40%. In the series “in vivo”, this compound gave a clearance of 9.4 mL/min/kg.

Regarding `O=C(O)c1ccc(-n2cc(C(=O)NC3C4CC5CC(C4)CC3C5)cn2)cc1` (centres undefined), the hepatocyte CLint in series [1] is 6.6 µL/min/1e6 cells. Further, the fraction unbound in series [2] amounted to 0.107.

For the compound `Cc1c(C(=O)NC2C3CC4CC(C3)CC2C4)cnn1-c1ccc(C(=O)O)cc1` (centres undefined), the hepatocyte CLint in series [1] is under 3 µL/min/1e6 cells. The compound also yielded a fraction unbound in series [2] of 0.127. In series [3], this compound gave a bioavailability of over 100%. Also, the clearance in the series “in vivo” is 8 mL/min/kg.

For `CSc1c(C(=O)NC2C3CC4CC(C3)CC2C4)cnn1-c1ccc(C(=O)O)cc1` (centres undefined), the hepatocyte CLint in [1] is under 2 µL/min/1e6 cells. Further, the fraction unbound in series [2] turned out to be 0.0336. For the same compound, the logD in [4] turned out to be 1.2. In series [3], this compound gave a bioavailability of 64%. Also, the clearance in the series “in vivo” was found to be 11 mL/min/kg.

Take `CC1(c2c(C(=O)NC3C4CC5CC(C4)CC3C5)cnn2-c2ccc(C(=O)O)cc2)CC1` (centres undefined): the hepatocyte CLint in [1] stood at 11 µL/min/1e6 cells. Further, in series [2], the fraction unbound turned out to be 0.033. This compound yielded a log distribution coefficient (logD) in [4] of 1.1. In [3], this compound gave a bioavailability of over 100%. The compound further displayed a clearance in “in vivo” of 19 mL/min/kg.

`O=C(O)c1ccc(-n2ncc(C(=O)NC3C4CC5CC(C4)CC3C5)c2C(F)(F)F)cc1` (centres undefined): the unbound share (fraction unbound) in [2] worked out at 0.045. In series [3], this compound registered a bioavailability of over 100%.

`CC(C)c1c(C(=O)NC2C3CC4CC(C3)CC2C4)cnn1-c1ccc(C(=O)O)cc1` (centres undefined) registered a hepatocyte CLint in series [1] of under 2 µL/min/1e6 cells. Also, the fraction unbound in [2] came out at 0.036. The compound also displayed a logD in series [4] of 1.2. In series [3], this compound gave a bioavailability of 53%. Further, in “in vivo”, the clearance was 2.2 mL/min/kg.

In series [2], `CCCSc1c(C(=O)NC2CCCCC2)cnn1C` yielded a fraction unbound of 0.132. This compound registered a logD in series [4] of 3. In series [3], the bioavailability is 0%.

`CCCSc1c(C(=O)NC2C3CC4CC(C3)CC2C4)cnn1-c1ccc(C(=O)O)cc1` (centres undefined): the fraction unbound in series [2] turned out to be 0.005. This compound yielded a logD in series [4] of 1.8. The same compound showed a bioavailability in series [3] of 45%.

Compound `CCCSc1c(C(=O)NC2CCCCC2)cnn1-c1ccc(C(=O)O)cc1` showed a hepatocyte CLint in series [1] of under 3 µL/min/1e6 cells. In series [2], this compound returned a fraction unbound of 0.04. The logD in [4] is 0.6. This compound also yielded a bioavailability in [3] of 72%. The compound further displayed a clearance in “in vivo” of 4.5 mL/min/kg.

As for `CCSc1c(C(=O)NC2C3CC4CC(C3)CC2C4)cnn1-c1ccc(C(=O)O)cc1` (centres undefined), in series [1], the hepatocyte CLint was 6 µL/min/1e6 cells. The compound also registered a fraction unbound in [2] of 0.0131. In [4], the logD was 1.5. In series [3], this compound had a bioavailability of 65%. The same compound displayed a clearance in “in vivo” of 3 mL/min/kg.

In the case of `CCCSc1nc(N2CCC[C@@H](CC(=O)O)C2)ccc1C(=O)NC1CCCCC1` [AZD-4017], the results for the 50% inhibitory concentration (IC50) in series [5] and in [13] were 3770 nM and 29 nM, respectively. Also, the Drug metabolism in series [6] stood at 28%; in series [9], 13%; in series [15], 10%. Moreover, the Ratio in the series with Hepatocyte [7] was determined as 6; in series [11] it was 7.5; in the series on Hepatocyte [12], 2.1; in series [14], 2.4; in series [16], 4.1. In addition, the Stability in [8] turned out to be 15%; in series [10] it was 4%.

As for `CCCSc1c(C(=O)NC2CCCCC2)cnn1[C@H]1CC[C@H](C(=O)O)CC1`, in series [1], the hepatocyte CLint stood at 7.5 µL/min/1e6 cells. The compound also yielded a fraction unbound in series [2] of 0.093. Also, the logD in series [4] was found to be 1. Besides, in series [3], the bioavailability turned out to be 100%. The compound further returned a clearance in “in vivo” of 2.5 mL/min/kg.

In the case of `CCCSc1c(C(=O)NC2CCCCC2)cnn1-c1cccc(C(=O)O)c1`, the hepatocyte CLint in series [1] worked out at 17 µL/min/1e6 cells. In series [2], the fraction unbound was 0.02. This compound showed a pH-dependent lipophilicity (logD) in series [4] of 0.7. Also, the bioavailability in series [3] is over 100%. Also, in “in vivo”, the clearance amounted to 17 mL/min/kg.

In series [1], `O=C(O)c1ccc(-n2ncc(C(=O)NC3C4CC5CC(C4)CC3C5)c2C2CC2)cc1` (centres undefined) had a hepatocyte CLint of 15 µL/min/1e6 cells. The fraction unbound in series [2] was 0.045. Also, in series [4], the logD was determined as 0.9. This compound also showed a bioavailability in series [3] of 51%. Moreover, the clearance in “in vivo” came out at 14 mL/min/kg.

Compound `CCCSc1c(C(=O)N(C)C2CCCCC2)cnn1-c1ccc(C(=O)O)cc1` displayed a hepatocyte CLint in series [1] of 26 µL/min/1e6 cells. For the same compound, in [2], the fraction unbound stood at 0.025. For the same compound, the pH-dependent lipophilicity (logD) in series [4] came to 0.6. This compound had a bioavailability in series [3] of 26%. Also, the clearance in the series “in vivo” is 8.1 mL/min/kg.
